Measurements as given in article PMC9016803, “Mitochondria-targeted half-sandwich iridium(III)-Cp*-arylimidazophenanthroline complexes as antiproliferative and bioimaging agents against triple negative breast cancer cells MDA-MB-468” (RSC Advances, 2022).

Tests used:
MDA-MB-468 cells [1] = test: Mitochondrial membrane potential, JC-1 staining, flow cytometry; assay type: cell-based
Description: The cells treated with the mitochondrial uncoupler CCCP (carbonyl cyanide m-chlorophenylhydrazone), which mediates the dissipation of mitochondrial membrane potential, served as positive control for the detection of mitochondrial dysfunction. […] Unstained control represented in Fig. 10A has been used for gating purposes. […]

MDA-MB-468 cells [2] = test: ROS generation, DCFDA staining; assay type: cell-based
Description: Our results indicated a dose dependent increase in ROS production in the MDA-MB-468 cells treated with IrL1 concentrations 1 μM and 3 μM. The extent of ROS production is indicated by the 2′,7′-dichlorofluorescein (DCF) formed by the deacetylation and subsequent oxidation of 2′,7′-dichlorofluorescin diacetate (DCFDA) through cellular esterases and ROS. […] ROS production was absent in untreated control. However, in the positive control, treated with H2O2, ROS production was high which is ∼99% (Fig. 11).
Colocalization study and ROS generation studies were performed using live cell lines in their log phase.

CT-DNA = test: DNA binding by UV-visible absorption titration; design: species or system calf; settings: for Change in absorbance: on addition of CT-DNA
Description: To design effective chemotherapeutic drugs, it is essential to explore the interactions of metal complexes with DNA. […] DNA base pairs such as purine (adenine and guanine) and pyrimidine (cytosine and thymine) analogues are responsible for electronic transitions. Upon the addition of CT-DNA in increasing concentration from 5 μM to 60 μM, we observed a hyperchromic shift in π–π* region and hypochromic shift at the MLCT region resulting in the appearance of an isosbestic point, which indicates the prevalence of […] interaction of the complex with DNA together with the intercalative mode of interaction (Fig. 6).
Electronic absorption spectroscopy was used to study the binding capacity of the complexes with calf-thymus DNA (Ct-DNA) and competitive binding assay as studied using ethidium bromide (EtBr) as quencher by fluorescence spectroscopy.
DNA binding assay was carried out by using complexes IrL5 in Tris-HCl buffer (5 mM Tris-HCl in water, pH 7.4) in aqueous medium. The concentration of Ct-DNA was calculated from its absorbance intensity at 260 nm and its known molar absorption coefficient value of 6600 M-1cm-1. Equal amount of DNA was added in both the sample and reference in cuvettes.
Titration was carried out by increasing concentration of CT-DNA. On the eve of each measurement, sample was equilibrated with CT-DNA for about 5 min and then absorbance of the complex was measured. The intrinsic DNA binding constant (K b) was calculated using the […]
[DNA] = [DNA] + 1 L L (i) […]
Where [DNA] is the concentration of DNA in the base pairs, εa is the apparent extinction coefficient observed for the complex, εf corresponds to the extinction coefficient of the complex in its free form, and εb refers to the extinction coefficient of the complex when fully bound to DNA. The resultant data were plotted using Origin Lab, version 8.5 to obtain the [DNA]/(ε a-εf) vs. [DNA] linear plot. The ratio of the slope to intercept from the linear fit gave the values of the intrinsic binding constants ( Kb).
UV and Fluorescence study […]
φ = φR × I × OD × η ⋯⋯⋯(ii)

[3] = n-Octanol/water partition coefficient, shake flask method; assay type: physicochemical
Description: Both hydrophilicity and lipophilicity studies were performed to determine the tumour-inhibiting potential of the metal complexes. These complexes were highly soluble in DMSO and moderately soluble in H2O, MeOH, EtOH and CH3CN. […] The lipophilicity of these complexes was determined by performing an n-octanol/water partition coefficient (log Po/w, where Po/w = the octanol/water partition coefficient) study using the shake flask method (Table 1).[24] The experimental log Po/w values of these complexes were determined to be in the range of 0.27–0.34 (Table 1). […] This change in the electrolytic behaviour of the complexes from 1 : 1 to 1 : 2 can be attributed to the dissociation of the Ir–Cl bond and subsequent aquation of the complexes. […]
n-Octanol–water partition coefficient (log P o/w)9
The log Po/w of the iridium complexes were adhering to shake flask method using the previously published procedure. A known amount of each complex (IrL1-IrL5) was suspended in water (pre-saturated with n-octanol) and shaken for 48 h on an orbital shaker.
To allow the phase separation, the solution was centrifuged for 10 min at 3000 rpm. To obtain the partition coefficient, different ratios (0.5: 1, 1: 1, and 2: 1) of the saturated solutions were shaken with pre-saturated n-octanol for 20 min on an orbital shaker and followed the same procedure. Aliquots of the aqueous and octanol layers were pipetted out separately and the absorbances were measured with UV-Vis spectrophotometer using proper dilution. Each set was performed in triplicate, concentration of the substances in each layer was calculated using the respective molar extinction coefficients and the partition coefficient (log P o/w) values were obtained from the ratio.

Solubility study = assay type: physicochemical; settings: DMSO-10% DMEM medium (1 : 99 v/v, comparable to cell media)
Description: Both hydrophilicity and lipophilicity studies were performed to determine the tumour-inhibiting potential of the metal complexes. These complexes were highly soluble in DMSO and moderately soluble in H2O, MeOH, EtOH and CH3CN. […] The lipophilicity of these complexes was determined by performing an n-octanol/water partition coefficient (log Po/w, where Po/w = the octanol/water partition coefficient) study using the shake flask method (Table 1).[24] The experimental log Po/w values of these complexes were determined to be in the range of 0.27–0.34 (Table 1). […] This change in the electrolytic behaviour of the complexes from 1 : 1 to 1 : 2 can be attributed to the dissociation of the Ir–Cl bond and subsequent aquation of the complexes.

[Iridium(III)-Cp*-2-(naphthalen-1-yl)-1H-imidazo[4,5-f][1,10]phenanthroline]PF6 [IrL1]
cells with damaged mitochondria (JC-1 monomers) (MDA-MB-468 cells [1]; 1 μM): 27.86%
cells with damaged mitochondria (JC-1 monomers) (MDA-MB-468 cells [1]; 3 μM): ~47.52%
cells with damaged mitochondria (JC-1 monomers) (MDA-MB-468 cells [1]; 5 μM): 67.02%
DCF positive cells (MDA-MB-468 cells [2]; 1 μM): 55.01%
DCF positive cells (MDA-MB-468 cells [2]; 3 μM): 70.67%
Δε (% change in hypochromism or hyperchromism) (CT-DNA; λmax 250 nm, hyperchromism): 60%
Change in absorbance (CT-DNA; λmax 250 nm): Hyperchromism
Δε (% change in hypochromism or hyperchromism) (CT-DNA; λmax 305 nm, hypochromism): 25%
Change in absorbance (CT-DNA; λmax 305 nm): Hypochromism
log P (n-octanol/water partition coefficient) [3]: 0.27 ± 0.07
Solubility (Solubility study): 700 µM
